Assay results published in PubChem BioAssay AID1963427 (Molecular Pharmacology Branch, DTP, NCI, 2024).

Tested on: 317291-083-R-J1-PDC complex spheroid growth
Assay: Anticancer human tumor 317291-083-R-J1-PDC patient-derived soft tissue sarcoma cell line growth inhibition [Asc]
Conditions: for IC50: curve of first compound; for viability, T/C: stronger effect = lower value
Method in brief: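 Concentration series start at each agent's clinical Cmax, or at 10 microM when none is established, and drop in half-log steps; agents are applied alone or together to complex spheroids built with HUVEC and hMSC.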

[1] = second compound 0.0316 µM, first compound 0.0316 µM
[2] = second compound 0.0316 µM, first compound 0.1 µM
[3] = second compound 0.1 µM, first compound 0.0316 µM
[4] = second compound 0.1 µM, first compound 0.1 µM
[5] = second compound 0.316 µM, first compound 0.0316 µM
[6] = second compound 0.316 µM, first compound 0.1 µM
[7] = second compound 1 µM, first compound 0.0316 µM
[8] = second compound 1 µM, first compound 0.1 µM
[9] = second compound 3.16 µM, first compound 0.0316 µM
[10] = second compound 3.16 µM, first compound 0.1 µM
[11] = second compound 10 µM, first compound 0.0316 µM
[12] = second compound 10 µM, first compound 0.1 µM
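Also: compound exposure lasted seven days after spheroids formed for three days.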
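For viability, T/C in this document: 100% = DMSO vehicle control wells.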

Work on `Cc1nc(N2CCC3(CC2)COC(C)C3N)c(CO)nc1Sc1ccnc(N)c1Cl` (stereo unspecified) + CNC(C)C(=O)NC1CN(S(=O)(=O)c2cccc(S(=O)(=O)N3CCC4CCC(C(=O)NC(c5ccccc5)c5ccccc5)N4C(=O)C(NC(=O)C(C)NC)C3)c2)CCC2CCC(C(=O)NC(c3ccccc3)c3ccccc3)N2C1=O yielded an IC50 (second compound 0.00316 µM) of 2210 nM, an IC50 (second compound 0.01 µM) of 1150 nM and an IC50 (second compound 0.0316 µM) of 1960 nM. The IC50 (second compound 0.1 µM) was 89.3 nM, the IC50 (second compound 0.316 µM) was less than 9.49 nM and the IC50 (second compound 1 µM) was less than 9.49 nM. It also gave a viability, T/C (second compound 0.00316 µM, first compound 0.00949 µM) of 93.4%, a viability, T/C (second compound 0.00316 µM, first compound 0.03 µM) of 70.8% and a viability, T/C (second compound 0.00316 µM, first compound 0.0949 µM) of 80.5%. The viability, T/C (second compound 0.00316 µM, first compound 0.3 µM) was 66.7%, the viability, T/C (second compound 0.00316 µM, first compound 0.949 µM) was 70.2% and the viability, T/C (second compound 0.00316 µM, first compound 3 µM) was 41.9%. It also gave a viability, T/C (second compound 0.01 µM, first compound 0.00949 µM) of 75.5%, a viability, T/C (second compound 0.01 µM, first compound 0.03 µM) of 90.1% and a viability, T/C (second compound 0.01 µM, first compound 0.0949 µM) of 67.8%. It also gave a viability, T/C (second compound 0.01 µM, first compound 0.3 µM) of 70%, a viability, T/C (second compound 0.01 µM, first compound 0.949 µM) of 52.2% and a viability, T/C (second compound 0.01 µM, first compound 3 µM) of 36.2%. For the same molecule, the viability, T/C (second compound 0.0316 µM, first compound 0.00949 µM) was 65.2%, the viability, T/C (second compound 0.0316 µM, first compound 0.03 µM) was 72.8% and the viability, T/C (second compound 0.0316 µM, first compound 0.0949 µM) was 71.3%. It also gave a viability, T/C (second compound 0.0316 µM, first compound 0.3 µM) of 63.8%, a viability, T/C (second compound 0.0316 µM, first compound 0.949 µM) of 53.2% and a viability, T/C (second compound 0.0316 µM, first compound 3 µM) of 47.2%. The viability, T/C (second compound 0.1 µM, first compound 0.00949 µM) was 70.3%, the viability, T/C (second compound 0.1 µM, first compound 0.03 µM) was 51.2% and the viability, T/C (second compound 0.1 µM, first compound 0.0949 µM) was 54.1%. For the same molecule, the viability, T/C (second compound 0.1 µM, first compound 0.3 µM) was 39.8%, the viability, T/C (second compound 0.1 µM, first compound 0.949 µM) was 39.9% and the viability, T/C (second compound 0.1 µM, first compound 3 µM) was 27.6%. The viability, T/C (second compound 0.316 µM, first compound 0.00949 µM) was 43.5%, the viability, T/C (second compound 0.316 µM, first compound 0.03 µM) was 39.8% and the viability, T/C (second compound 0.316 µM, first compound 0.0949 µM) was 38.1%. For the same molecule, the viability, T/C (second compound 0.316 µM, first compound 0.3 µM) was 37.7%, the viability, T/C (second compound 0.316 µM, first compound 0.949 µM) was 32.4% and the viability, T/C (second compound 0.316 µM, first compound 3 µM) was 22.8%. It also gave a viability, T/C (second compound 1 µM, first compound 0.00949 µM) of 29.8%, a viability, T/C (second compound 1 µM, first compound 0.03 µM) of 22.5% and a viability, T/C (second compound 1 µM, first compound 0.0949 µM) of 29.8%. It also gave a viability, T/C (second compound 1 µM, first compound 0.3 µM) of 23.1%, a viability, T/C (second compound 1 µM, first compound 0.949 µM) of 18.5% and a viability, T/C (second compound 1 µM, first compound 3 µM) of 19.3%.

Work on `Cn1ncnc1[C@H]1c2n[nH]c(=O)c3cc(F)cc(c23)N[C@@H]1c1ccc(F)cc1` + Cc1c(S(C)(=O)=O)c(-c2cc(F)cc(N3CCN(c4ccc(NS(=O)(=O)c5ccc(NC(CCN6CCC(C(=O)OCCCP(=O)(O)O)CC6)CSc6ccccc6)c(S(=O)(=O)C(F)(F)F)c5)cc4)CC3)c2)c(-c2ccc(Cl)cc2)n1C(C)C yielded an IC50 (second compound 0.0316 µM) greater than 100 nM, an IC50 (second compound 0.1 µM) greater than 100 nM and an IC50 (second compound 0.316 µM) of 81 nM. It also gave an IC50 (second compound 1 µM) of 49.7 nM, an IC50 (second compound 3.16 µM) of 55 nM and an IC50 (second compound 10 µM) of 32.5 nM. The viability, T/C (second compound 0.0316 µM, first compound 0.000316 µM) was 93.2%, the viability, T/C (second compound 0.0316 µM, first compound 0.001 µM) was 91.5% and the viability, T/C (second compound 0.0316 µM, first compound 0.00316 µM) was 78.4%. The viability, T/C (second compound 0.0316 µM, first compound 0.01 µM) was 85.6%, the viability, T/C [1] was 67.1% and the viability, T/C [2] was 56.6%. It also gave a viability, T/C (second compound 0.1 µM, first compound 0.000316 µM) of 91%, a viability, T/C (second compound 0.1 µM, first compound 0.001 µM) of 90.8% and a viability, T/C (second compound 0.1 µM, first compound 0.00316 µM) of 88.1%. The viability, T/C (second compound 0.1 µM, first compound 0.01 µM) was 77.9%, the viability, T/C [3] was 64.7% and the viability, T/C [4] was 55.5%. For the same molecule, the viability, T/C (second compound 0.316 µM, first compound 0.000316 µM) was 83.2%, the viability, T/C (second compound 0.316 µM, first compound 0.001 µM) was 74.1% and the viability, T/C (second compound 0.316 µM, first compound 0.00316 µM) was 85.5%. For the same molecule, the viability, T/C (second compound 0.316 µM, first compound 0.01 µM) was 66.8%, the viability, T/C [5] was 63% and the viability, T/C [6] was 47.1%. It also gave a viability, T/C (second compound 1 µM, first compound 0.000316 µM) of 78.4%, a viability, T/C (second compound 1 µM, first compound 0.001 µM) of 77.3% and a viability, T/C (second compound 1 µM, first compound 0.00316 µM) of 71.2%. The viability, T/C (second compound 1 µM, first compound 0.01 µM) was 55.5%, the viability, T/C [7] was 63.2% and the viability, T/C [8] was 40.4%. The viability, T/C (second compound 3.16 µM, first compound 0.000316 µM) was 81.5%, the viability, T/C (second compound 3.16 µM, first compound 0.001 µM) was 65.9% and the viability, T/C (second compound 3.16 µM, first compound 0.00316 µM) was 72.3%. It also gave a viability, T/C (second compound 3.16 µM, first compound 0.01 µM) of 60.6%, a viability, T/C [9] of 57.5% and a viability, T/C [10] of 43.4%. The viability, T/C (second compound 10 µM, first compound 0.000316 µM) was 99.5%, the viability, T/C (second compound 10 µM, first compound 0.001 µM) was 92.9% and the viability, T/C (second compound 10 µM, first compound 0.00316 µM) was 71.5%. For the same molecule, the viability, T/C (second compound 10 µM, first compound 0.01 µM) was 66.2%, the viability, T/C [11] was 48.3% and the viability, T/C [12] was 41.9%.

For `O=C(c1cc(Cc2n[nH]c(=O)c3ccccc23)ccc1F)N1CCN(C(=O)C2CC2)CC1` + Cc1c(S(C)(=O)=O)c(-c2cc(F)cc(N3CCN(c4ccc(NS(=O)(=O)c5ccc(NC(CCN6CCC(C(=O)OCCCP(=O)(O)O)CC6)CSc6ccccc6)c(S(=O)(=O)C(F)(F)F)c5)cc4)CC3)c2)c(-c2ccc(Cl)cc2)n1C(C)C, the IC50 (second compound 0.0316 µM) was 6940 nM, the IC50 (second compound 0.1 µM) was 8290 nM and the IC50 (second compound 0.316 µM) was 5210 nM. The IC50 (second compound 1 µM) was 4350 nM, the IC50 (second compound 3.16 µM) was 5160 nM and the IC50 (second compound 10 µM) was 5440 nM. For the same molecule, the viability, T/C [1] was 84.8%, the viability, T/C [2] was 72.5% and the viability, T/C (second compound 0.0316 µM, first compound 0.316 µM) was 88%. It also gave a viability, T/C (second compound 0.0316 µM, first compound 1 µM) of 75.9%, a viability, T/C (second compound 0.0316 µM, first compound 3.16 µM) of 68.2% and a viability, T/C (second compound 0.0316 µM, first compound 10 µM) of 41.5%. The viability, T/C [3] was 90%, the viability, T/C [4] was 87.3% and the viability, T/C (second compound 0.1 µM, first compound 0.316 µM) was 79.1%. For the same molecule, the viability, T/C (second compound 0.1 µM, first compound 1 µM) was 84%, the viability, T/C (second compound 0.1 µM, first compound 3.16 µM) was 70% and the viability, T/C (second compound 0.1 µM, first compound 10 µM) was 45.9%. For the same molecule, the viability, T/C [5] was 82.8%, the viability, T/C [6] was 80.5% and the viability, T/C (second compound 0.316 µM, first compound 0.316 µM) was 90.2%. The viability, T/C (second compound 0.316 µM, first compound 1 µM) was 75.7%, the viability, T/C (second compound 0.316 µM, first compound 3.16 µM) was 61.8% and the viability, T/C (second compound 0.316 µM, first compound 10 µM) was 35.3%. The viability, T/C [7] was 73.7%, the viability, T/C [8] was 98.6% and the viability, T/C (second compound 1 µM, first compound 0.316 µM) was 69.1%. The viability, T/C (second compound 1 µM, first compound 1 µM) was 63.7%, the viability, T/C (second compound 1 µM, first compound 3.16 µM) was 64.7% and the viability, T/C (second compound 1 µM, first compound 10 µM) was 27.9%. The viability, T/C [9] was 75.7%, the viability, T/C [10] was 62.6% and the viability, T/C (second compound 3.16 µM, first compound 0.316 µM) was 61.8%. The viability, T/C (second compound 3.16 µM, first compound 1 µM) was 54.1%, the viability, T/C (second compound 3.16 µM, first compound 3.16 µM) was 67.6% and the viability, T/C (second compound 3.16 µM, first compound 10 µM) was 30.8%. It also gave a viability, T/C [11] of 90.6%, a viability, T/C [12] of 83.4% and a viability, T/C (second compound 10 µM, first compound 0.316 µM) of 95.8%. For the same molecule, the viability, T/C (second compound 10 µM, first compound 1 µM) was 83.2%, the viability, T/C (second compound 10 µM, first compound 3.16 µM) was 69.1% and the viability, T/C (second compound 10 µM, first compound 10 µM) was 28.9%.
